Reference: patent US20070078123A1, “1-Thia-3-aza-dibenzo[e,h]azulenes for the treatment of central nervous system diseases and disorders” (PILVA-ISTRAZIVACKI INSTITUT D.O.O., priority 2003, published 2007)
pIC50: −log10 of the molar value.

Key:
[1] = target: T1, 5-HT2A receptor (Homo sapiens, UniProt P28223); experiment: Radioligand binding assay for 5-HT2A receptor ([3H]-ketanserin competitive binding); conditions: human cortex or recombinant 5-HT2A receptor expressed in CHO-K1 cells, read-out: binding affinity to 5-HT2A serotonin receptor expressed as IC50 value
T1 construct: expressed in transfected cells; host or cells: CHO-K1 (or COS-7) cells; alternatively human cortex tissue
Description: (§1) The effect of the compounds of the present invention on the neurochemical steady state was determined by in vitro investigations such as a radionuclide-marked radioligand binding assay for 5-HT2A (Bonhaus D. W. Br. J. Pharmacol. 1995, 115:622; Saucier C. J. Neurochem. 1997, 68:1998) and 5-HT2C receptors (Wolf W. A. J. Neurochem. 1997, 69:1449), in vitro binding assay for σ1 receptor (Thomson W. and Donn R. Arthritis Res. 2002, 4: 302-306) and by in vivo investigations in a tail suspension test (Vogel H. G. and Vogel W. H. Drug Discovery and Evaluation Pharmacological Assays, Springer 1997, 304), in amphethamine-induced hyperlocomotion in mice (Millan M. J. et al, 1998 J Pharmacol. Exp. 7her. 287: 167-186), in a forced swim test in mice (Porsolt R. D. et al. Arch. Int. Pharmacodyn. 1977, 229:327-336), in meta-chlorophenyl piperazine (m-CPP) test on rats (Drug Dev. Res. 1989, 18:119-144), and in apomorphine, tryptamine and norepinephrine (ATN) test in rats (Arch. Int. Pharmacodyn. 1977, 227:238-253). […]
(§2) During incubation the radioligand bound to the receptor. When a binding balance was achieved, the receptors to which the radioligand was bound were separated from those to which said ligand was not bound, and the radioactivity of the receptor/radioligand complex was measured. […]

[2] = target: T2, 5-HT2C receptor (Homo sapiens, UniProt P28335); experiment: Radioligand binding assay for 5-HT2C receptor ([3H]-mesulergine competitive binding); conditions: choroid plexus or recombinant 5-HT2C receptor expressed in CHO-K1 cells, read-out: binding affinity to 5-HT2C serotonin receptor expressed as IC50 value
T2 construct: expressed in transfected cells; host or cells: CHO-K1 (or COS-7) cells; alternatively choroid plexus tissue
T2 sequence (P28335 33-458): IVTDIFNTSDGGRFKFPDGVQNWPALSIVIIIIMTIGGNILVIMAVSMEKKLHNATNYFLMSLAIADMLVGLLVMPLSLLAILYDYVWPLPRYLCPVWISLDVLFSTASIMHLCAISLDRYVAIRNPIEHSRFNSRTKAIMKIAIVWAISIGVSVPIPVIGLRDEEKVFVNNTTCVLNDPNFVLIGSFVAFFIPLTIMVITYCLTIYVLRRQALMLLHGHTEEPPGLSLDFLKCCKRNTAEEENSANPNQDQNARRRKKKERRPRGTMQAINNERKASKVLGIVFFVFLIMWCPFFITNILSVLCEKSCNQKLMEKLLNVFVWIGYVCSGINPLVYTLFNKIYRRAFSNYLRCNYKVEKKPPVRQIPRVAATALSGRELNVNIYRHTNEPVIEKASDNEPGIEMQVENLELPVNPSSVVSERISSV
Description: as §1, §2

T1 sequence (P28223 whole entry): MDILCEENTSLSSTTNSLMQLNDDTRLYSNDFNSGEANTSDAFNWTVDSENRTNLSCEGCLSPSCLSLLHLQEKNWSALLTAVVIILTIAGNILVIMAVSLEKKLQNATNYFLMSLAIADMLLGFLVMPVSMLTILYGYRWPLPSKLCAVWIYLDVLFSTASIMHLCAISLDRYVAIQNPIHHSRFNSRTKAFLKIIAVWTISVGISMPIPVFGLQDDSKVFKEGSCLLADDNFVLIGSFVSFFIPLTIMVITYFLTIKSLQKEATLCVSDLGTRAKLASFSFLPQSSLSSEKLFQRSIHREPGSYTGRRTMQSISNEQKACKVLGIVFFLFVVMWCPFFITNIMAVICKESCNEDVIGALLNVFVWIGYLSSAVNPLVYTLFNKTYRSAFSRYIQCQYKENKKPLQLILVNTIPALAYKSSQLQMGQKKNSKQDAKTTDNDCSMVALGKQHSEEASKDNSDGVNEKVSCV

In the case of CN(C)CCCOCc1nc2c(s1)-c1ccccc1Oc1ccc(Cl)cc1-2 [[3-(5-chloro-8-oxa-1-thia-3-aza-dibenzo[e,h]azulen-2-ylmethoxy)-propyl]-dimethyl-amine], the pIC50 [1] was > 6.70 and the pIC50 [2] was > 6.70.
